Reference: ChEMBL document CHEMBL1149137, “Synthesis, screening, and molecular modeling of new potent and selective antagonists at the alpha 1d adrenergic receptor” (J Med Chem, 2004)

Experiments:
[1] = target: Alpha-1A adrenergic receptor (Homo sapiens) (UniProt P35348); assay: In vitro binding affinity towards alpha-1A adrenergic receptor through displacement of [3H]prazosin in cloned human receptor.
[2] = target: Alpha-1D adrenergic receptor (Homo sapiens) (UniProt P25100); assay: Binding affinity to the adrenergic receptor alpha-1D of cloned human receptor
[3] = target: T1, 5-hydroxytryptamine receptor 1A (Homo sapiens, UniProt P08908); assay: Binding affinity to human 5-hydroxytryptamine 1A receptor was measured using [3H]-8-hydroxy-2-(di-n-propylamine) tetraline [3H]8-OH-DPAT) as radioligand
T1 sequence (P08908 whole entry): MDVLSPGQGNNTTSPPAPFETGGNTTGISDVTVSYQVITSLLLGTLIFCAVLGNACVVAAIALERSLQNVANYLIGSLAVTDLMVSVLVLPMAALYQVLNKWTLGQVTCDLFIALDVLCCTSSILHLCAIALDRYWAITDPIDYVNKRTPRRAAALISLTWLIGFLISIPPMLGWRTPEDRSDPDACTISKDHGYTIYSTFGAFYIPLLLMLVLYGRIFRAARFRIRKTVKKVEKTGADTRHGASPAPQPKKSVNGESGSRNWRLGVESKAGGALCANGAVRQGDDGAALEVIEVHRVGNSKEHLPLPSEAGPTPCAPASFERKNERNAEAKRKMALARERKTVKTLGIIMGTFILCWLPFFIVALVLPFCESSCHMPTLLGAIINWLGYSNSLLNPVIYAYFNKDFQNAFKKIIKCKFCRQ

Row | Structure (SMILES) | Ki [1] | Ki [2] | Ki [3]
1 | O=C1CC2(CCCC2)CC(=O)N1CCN1CCN(c2ccccc2F)CC1 | > 1000 nM | – | –
2 | O=C1CC2(CCCC2)CC(=O)N1CCN1CCN(c2ccccc2C(F)(F)F)CC1 | – | 5.25 nM | 26.3 nM
3 | O=C1CC2(CCCC2)CC(=O)N1CCN1CCN(c2ccccc2Cl)CC1 | 552 nM | 0.83 nM | 4.24 nM
4 | O=C1CC2(CCCCC2)CC(=O)N1CCN1CCN(c2ccccc2Cl)CC1 | 422 nM | 2.88 nM | 20 nM
5 | O=C1CC2(CCCC2)CC(=O)N1CCN1CCN(c2cc(F)ccc2Cl)CC1 | 108 nM | 0.18 nM | –
6 | O=C1CC2(CCCC2)CC(=O)N1CCN1CCC(c2cc(Cl)ccc2Cl)CC1 | 119 nM | 1.5 nM | –
7 | O=C1CC2(CCC2)CC(=O)N1CCN1CCN(c2cc(Cl)ccc2Cl)CC1 | 120 nM | 2.65 nM | –
8 | O=C1CC2(CCCC2)CC(=O)N1CCN1CCN(c2cc(Br)ccc2Br)CC1 | 114 nM | 3.72 nM | –
9 | Cc1ccc(N2CCN(CCN3C(=O)CC4(CCCC4)CC3=O)CC2)c(C)c1 | – | 73.3 nM | 2360 nM
10 | O=C1CC2(CCCC2)CC(=O)N1CCN1CCN(c2cc(F)ccc2F)CC1 | – | 0.14 nM | 61 nM
11 | O=C1CC2(CCCC2)C(=O)N1CCN1CCN(c2cc(Cl)ccc2Cl)CC1 | 68.3 nM | 3.11 nM | –
12 | O=C1CC2(CCCC2)CC(=O)N1CCNCCOc1cc(Cl)ccc1Cl | – | 207 nM | > 1000 nM
13 | COc1ccccc1OCCNCCN1C(=O)CC2(CCCC2)CC1=O | – | > 1000 nM | 526 nM
14 | N#Cc1ccc(Cl)cc1N1CCN(CCN2C(=O)CC3(CCCC3)CC2=O)CC1 | 503 nM | 0.2 nM | –
15 | Cc1ccc(F)c(N2CCN(CCN3C(=O)CC4(CCCC4)CC3=O)CC2)c1 | > 1000 nM | 2.38 nM | –
16 | O=C1CC2(CCCC2)CC(=O)N1CCN1CCN(c2cccc(C(F)(F)F)c2)CC1 | – | 153 nM | 8.22 nM
17 | O=C1CCC(=O)N1CCN1CCN(c2cc(Cl)ccc2Cl)CC1 | – | 7.78 nM | –
18 | O=C1CC2(CCCC2)CC(=O)N1CCN1CCN(c2ccc(Cl)cc2)CC1 | – | 35.9 nM | 599 nM
19 | Cc1ccc(C)c(N2CCN(CCN3C(=O)CC4(CCCC4)CC3=O)CC2)c1 | 119 nM | 10.1 nM | –
20 | CN(CCN1C(=O)CC2(CCCC2)CC1=O)CCN(C)c1cc(Cl)ccc1Cl | 786 nM | 16.4 nM | –
21 | CC1CN(c2ccccc2[N+](=O)[O-])CC(C)N1CCN1C(=O)CC2(CCCC2)CC1=O (stereo not given) | – | > 1000 nM | 399 nM
22 | O=C1CC2(CCCCC2)CC(=O)N1CCN1CCN(c2cc(Cl)ccc2Cl)CC1 | 331 nM | 2.21 nM | –
23 | O=C1CC2(CCCC2)CC(=O)N1CCN1CCN(c2cc([N+](=O)[O-])ccc2F)CC1 | – | 46.3 nM | > 1000 nM
24 | COc1ccc(N2CCN(CCN3C(=O)CC4(CCCC4)CC3=O)CC2)cc1 | – | 37.8 nM | 54.6 nM
25 | CN(CCN1C(=O)CC2(CCCC2)CC1=O)CC(=O)N(C)c1cc(Cl)ccc1Cl | – | > 1000 nM | > 1000 nM
26 | CN(CCCOc1cc(Cl)ccc1Cl)CCN1C(=O)CC2(CCCC2)CC1=O | – | 110 nM | 452 nM
27 | O=C1CC2(CCCC2)CC(=O)N1CCN1CCN(c2cc(I)ccc2Cl)CC1 | 479 nM | 15.3 nM | –
28 | O=C1CC2(CCCC2)CC(=O)N1CCN1CCN(c2cc(C(F)(F)F)ccc2Cl)CC1 | – | 39.1 nM | > 1000 nM
29 | CN(CCOc1ccccc1Cl)CCN1C(=O)CC2(CCCC2)CC1=O | – | 14.8 nM | 125 nM
30 | CN(CCCN(C)c1cc(Cl)ccc1Cl)CCN1C(=O)CC2(CCCC2)CC1=O | – | 110 nM | > 1000 nM
